# Non-standard residues stand in square brackets, D forms with d. Residues, ends and D or L forms follow the SMILES beside them. Aib = CC(C)(N)C(=O)O
# Tested on: pancreatic β cells
# Assay: glucose-stimulated insulin secretion (GSIS) assay
# Format: cell-based
# Details: GA targeting agent-linker conjugate; GSIS assay in vitro
# Protocol: Briefly, glucose and GA targeting peptide was added at various concentrations to pancreatic β cell cultures, and insulin secretion was detected by measuring insulin levels over time. EC50 was calculated for each peptide.
# The ability of these GA targeting agent-linker conjugates to stimulate […] secretion in vitro was measured using the GSIS assay described in Example 27. […] Each of these peptides contained a side-chain modified Lys residue according to the scheme illustrated in FIG. 30 at a different position.
row,EC50 [µM],Compound
1,< 10,CC/C=C/CC(=O)N[C@@H](Cc1c[nH]cn1)C(=O)NC(C)(C)C(=O)N[C@@H](CCC(=O)O)C(=O)NCC(=O)N[C@H](C(=O)N[C@@H](Cc1ccccc1)C(=O)N[C@H](C(=O)N[C@@H](CO)C(=O)N[C@@H](CC(=O)O)C(=O)N[C@H](C(=O)N[C@@H](CO)C(=O)N[C@@H](CO)C(=O)N[C@@H](Cc1ccc(O)cc1)C(=O)N[C@@H](CC(C)C)C(=O)N[C@@H](CCC(=O)O)C(=O)N[C@@H](CCC(=O)O)C(=O)N[C@@H](CCC(N)=O)C(=O)N[C@@H](C)C(=O)N[C@H](C(=O)N[C@@H](CCCCN)C(=O)N[C@@H](CCC(=O)O)C(=O)N[C@@H](Cc1ccccc1)C(=O)N[C@H](C(=O)N[C@@H](C)C(=O)N[C@@H](Cc1c[nH]c2ccccc12)C(=O)N[C@@H](CC(C)C)C(=O)N[C@H](C(=O)N[C@@H](CCCCN)C(=O)NC(C)(C)C(=O)N[C@@H](CCCNC(=N)N)C(N)=O)[C@@H](C)CC)[C@@H](C)CC)C(C)C)C(C)C)[C@@H](C)O)[C@@H](C)O

# Same assay, conditions: GA targeting peptide; insulin secretion from pancreatic β cell cultures in vitro with glucose
row,EC50 [µM],Compound
1,< 10,CC[C@H](C)[C@H](NC(=O)[C@H](Cc1ccccc1)NC(=O)[C@H](CCC(=O)O)NC(=O)[C@H](CCCCN)NC(=O)[C@H](C)NC(=O)[C@H](C)NC(=O)[C@H](CCC(N)=O)NC(=O)CNC(=O)[C@H](CCC(=O)O)NC(=O)[C@H](Cc1c[nH]c2ccccc12)NC(=O)[C@H](Cc1ccc(O)cc1)NC(=O)[C@H](CO)NC(=O)[C@H](CO)NC(=O)[C@@H](NC(=O)[C@H](CC(=O)O)NC(=O)[C@H](CO)NC(=O)[C@@H](NC(=O)[C@H](Cc1ccccc1)NC(=O)[C@@H](NC(=O)CNC(=O)[C@H](CCC(=O)O)NC(=O)C(C)(C)NC(=O)[C@@H](N)Cc1c[nH]cn1)[C@@H](C)O)[C@@H](C)O)C(C)C)C(=O)N[C@@H](C)C(=O)N[C@@H](Cc1c[nH]c2ccccc12)C(=O)N[C@@H](CC(C)C)C(=O)N[C@H](C(=O)N[C@@H](CCCCN)C(=O)NC(C)(C)C(=O)N[C@@H](CCCNC(=N)N)C(N)=O)C(C)C [SEQ ID NO: 44] (H-H[Aib]EGTFTSDVSSYWEGQAAKEFIAWLVK[Aib]R-NH2)
2,< 10,CC[C@H](C)[C@H](NC(=O)[C@H](Cc1ccccc1)NC(=O)[C@H](CCC(=O)O)NC(=O)[C@H](CCCCN)NC(=O)[C@H](C)NC(=O)[C@H](C)NC(=O)[C@H](CCC(N)=O)NC(=O)[C@H](CCCCN)NC(=O)[C@H](CCC(=O)O)NC(=O)[C@H](CC(C)C)NC(=O)[C@H](Cc1ccc(O)cc1)NC(=O)[C@H](CO)NC(=O)[C@H](CO)NC(=O)[C@@H](NC(=O)[C@H](CC(=O)O)NC(=O)[C@H](CO)NC(=O)[C@@H](NC(=O)[C@H](Cc1ccccc1)NC(=O)[C@@H](NC(=O)CNC(=O)[C@H](CCC(=O)O)NC(=O)C(C)(C)NC(=O)[C@@H](N)Cc1c[nH]cn1)[C@@H](C)O)[C@@H](C)O)C(C)C)C(=O)N[C@@H](C)C(=O)N[C@@H](Cc1c[nH]c2ccccc12)C(=O)N[C@@H](CC(C)C)C(=O)N[C@H](C(=O)N[C@@H](CCCCN)C(=O)NC(C)(C)C(=O)N[C@@H](CCCNC(=N)N)C(N)=O)C(C)C [SEQ ID NO: 47] (H-H[Aib]EGTFTSDVSSYLEKQAAKEFIAWLVK[Aib]R-NH2)
3,< 10,CC[C@H](C)[C@H](NC(=O)[C@H](Cc1ccccc1)NC(=O)[C@H](CCC(=O)O)NC(=O)[C@H](CCCCN)NC(=O)[C@H](C)NC(=O)[C@H](C)NC(=O)[C@H](CCC(N)=O)NC(=O)CNC(=O)[C@H](CCC(=O)O)NC(=O)[C@H](CC(C)C)NC(=O)[C@H](Cc1ccc(O)cc1)NC(=O)[C@H](CO)NC(=O)[C@H](CO)NC(=O)[C@@H](NC(=O)[C@H](CC(=O)O)NC(=O)[C@H](CO)NC(=O)[C@@H](NC(=O)[C@H](Cc1ccccc1)NC(=O)[C@@H](NC(=O)CNC(=O)[C@H](CCC(=O)O)NC(=O)C(C)(C)NC(=O)[C@@H](N)Cc1c[nH]cn1)[C@@H](C)O)[C@@H](C)O)C(C)C)C(=O)N[C@@H](C)C(=O)N[C@@H](Cc1c[nH]c2ccccc12)C(=O)N[C@@H](CC(C)C)C(=O)N[C@H](C(=O)N[C@@H](CCCCN)C(=O)NC(C)(C)C(=O)N[C@@H](CCCNC(=N)N)C(N)=O)[C@@H](C)CC [SEQ ID NO: 54]

# Further lines, the compound ahead of its results:
row,Compound,EC50 [µM]
1,"CC[C@H](C)[C@H](NC(=O)[C@H](Cc1ccccc1)NC(=O)[C@H](CCC(=O)O)NC(=O)[C@H](CCCCN)NC(=O)[C@H](C)NC(=O)[C@H](C)NC(=O)[C@H](CCC(N)=O)NC(=O)CNC(=O)[C@H](CCC(=O)O)NC(=O)[C@H](CC(C)C)NC(=O)[C@H](Cc1ccc(O)cc1)NC(=O)[C@H](CO)NC(=O)[C@H](CO)NC(=O)[C@@H](NC(=O)[C@H](CC(=O)O)NC(=O)[C@H](CO)NC(=O)[C@@H](NC(=O)[C@H](Cc1ccccc1)NC(=O)[C@@H](NC(=O)CNC(=O)[C@H](CCC(=O)O)NC(=O)[C@H](C)NC(=O)[C@@H](N)Cc1c[nH]cn1)[C@@H](C)O)[C@@H](C)O)C(C)C)C(=O)N[C@@H](C)C(=O)N[C@@H](Cc1c[nH]c2ccccc12)C(=O)N[C@@H](CC(C)C)C(=O)N[C@H](C(=O)N[C@@H](CCCCN)C(=O)NCC(=O)N[C@@H](CCCNC(=N)N)C(N)=O)C(C)C [SEQ ID NO: 1, reference compound]",< 10
2,CC[C@H](C)[C@H](NC(=O)[C@H](Cc1ccccc1)NC(=O)[C@H](CCC(=O)O)NC(=O)[C@H](CCCCN)NC(=O)[C@H](C)NC(=O)[C@H](C)NC(=O)[C@H](CCC(N)=O)NC(=O)CNC(=O)[C@H](CCC(=O)O)NC(=O)[C@H](Cc1ccc(O)cc1)NC(=O)[C@H](Cc1ccc(O)cc1)NC(=O)[C@H](CO)NC(=O)[C@H](CO)NC(=O)[C@@H](NC(=O)[C@H](CC(=O)O)NC(=O)[C@H](CO)NC(=O)[C@@H](NC(=O)[C@H](Cc1ccccc1)NC(=O)[C@@H](NC(=O)CNC(=O)[C@H](CCC(=O)O)NC(=O)C(C)(C)NC(=O)[C@@H](N)Cc1c[nH]cn1)[C@@H](C)O)[C@@H](C)O)C(C)C)C(=O)N[C@@H](C)C(=O)N[C@@H](Cc1c[nH]c2ccccc12)C(=O)N[C@@H](CC(C)C)C(=O)N[C@H](C(=O)N[C@@H](CCCCN)C(=O)NC(C)(C)C(=O)N[C@@H](CCCNC(=N)N)C(N)=O)C(C)C [SEQ ID NO: 43] (H-H[Aib]EGTFTSDVSSYYEGQAAKEFIAWLVK[Aib]R-NH2),< 10
3,CC[C@H](C)[C@H](NC(=O)[C@H](Cc1ccccc1)NC(=O)[C@H](CCC(=O)O)NC(=O)[C@H](CCCCN)NC(=O)[C@H](CC(C)C)NC(=O)[C@H](C)NC(=O)[C@H](CCC(N)=O)NC(=O)CNC(=O)[C@H](CCC(=O)O)NC(=O)[C@H](CC(C)C)NC(=O)[C@H](Cc1ccc(O)cc1)NC(=O)[C@H](CO)NC(=O)[C@H](CO)NC(=O)[C@@H](NC(=O)[C@H](CC(=O)O)NC(=O)[C@H](CO)NC(=O)[C@@H](NC(=O)[C@H](Cc1ccccc1)NC(=O)[C@@H](NC(=O)CNC(=O)[C@H](CCC(=O)O)NC(=O)C(C)(C)NC(=O)[C@@H](N)Cc1c[nH]cn1)[C@@H](C)O)[C@@H](C)O)C(C)C)C(=O)N[C@@H](C)C(=O)N[C@@H](Cc1c[nH]c2ccccc12)C(=O)N[C@@H](CC(C)C)C(=O)N[C@H](C(=O)N[C@@H](CCCCN)C(=O)NC(C)(C)C(=O)N[C@@H](CCCNC(=N)N)C(N)=O)C(C)C [SEQ ID NO: 50] (H-H[Aib]EGTFTSDVSSYLEGQALKEFIAWLVK[Aib]R-NH2),< 10
4,CC[C@H](C)[C@H](NC(=O)[C@H](Cc1ccccc1)NC(=O)[C@H](CCC(=O)O)NC(=O)[C@H](CCCCN)NC(=O)[C@@H](NC(=O)[C@H](C)NC(=O)[C@H](CCC(N)=O)NC(=O)[C@H](CCC(=O)O)NC(=O)[C@H](CCC(=O)O)NC(=O)[C@H](Cc1ccccc1)NC(=O)[C@H](Cc1ccc(O)cc1)NC(=O)[C@H](CO)NC(=O)[C@H](CO)NC(=O)[C@@H](NC(=O)[C@H](CC(=O)O)NC(=O)[C@H](CO)NC(=O)[C@@H](NC(=O)[C@H](Cc1ccccc1)NC(=O)[C@@H](NC(=O)CNC(=O)[C@H](CCC(=O)O)NC(=O)C(C)(C)NC(=O)[C@@H](N)Cc1c[nH]cn1)[C@@H](C)O)[C@@H](C)O)C(C)C)C(C)C)C(=O)N[C@@H](C)C(=O)N[C@@H](Cc1c[nH]c2ccccc12)C(=O)N[C@@H](CC(C)C)C(=O)N[C@H](C(=O)N[C@@H](CCCCN)C(=O)NC(C)(C)C(=O)N[C@@H](CCCNC(=N)N)C(N)=O)[C@@H](C)CC [SEQ ID NO: 58] (H-H[Aib]EGTFTSDVSSYFEEQAVKEFIAWLIK[Aib]R-NH2),< 10
5,CC[C@H](C)[C@H](NC(=O)[C@H](Cc1ccccc1)NC(=O)[C@H](CCC(=O)O)NC(=O)[C@H](CCCCN)NC(=O)[C@@H](NC(=O)[C@H](C)NC(=O)[C@H](CCC(N)=O)NC(=O)[C@H](CCC(=O)O)NC(=O)[C@H](CCC(=O)O)NC(=O)[C@H](Cc1c[nH]c2ccccc12)NC(=O)[C@H](Cc1ccc(O)cc1)NC(=O)[C@H](CO)NC(=O)[C@H](CO)NC(=O)[C@@H](NC(=O)[C@H](CC(=O)O)NC(=O)[C@H](CO)NC(=O)[C@@H](NC(=O)[C@H](Cc1ccccc1)NC(=O)[C@@H](NC(=O)CNC(=O)[C@H](CCC(=O)O)NC(=O)C(C)(C)NC(=O)[C@@H](N)Cc1c[nH]cn1)[C@@H](C)O)[C@@H](C)O)C(C)C)C(C)C)C(=O)N[C@@H](C)C(=O)N[C@@H](Cc1c[nH]c2ccccc12)C(=O)N[C@@H](CC(C)C)C(=O)N[C@H](C(=O)N[C@@H](CCCCN)C(=O)NC(C)(C)C(=O)N[C@@H](CCCNC(=N)N)C(N)=O)[C@@H](C)CC [SEQ ID NO: 60] (H-H[Aib]EGTFTSDVSSYWEEQAVKEFIAWLIK[Aib]R-NH2),< 10
6,CC[C@H](C)[C@H](NC(=O)[C@H](Cc1ccccc1)NC(=O)[C@H](CCC(=O)O)NC(=O)[C@H](CCCCN)NC(=O)[C@H](C)NC(=O)[C@H](C)NC(=O)[C@H](CCC(N)=O)NC(=O)CNC(=O)[C@H](CCC(=O)O)NC(=O)[C@H](CS)NC(=O)[C@H](Cc1ccc(O)cc1)NC(=O)[C@H](CO)NC(=O)[C@H](CO)NC(=O)[C@@H](NC(=O)[C@H](CC(=O)O)NC(=O)[C@H](CO)NC(=O)[C@@H](NC(=O)[C@H](Cc1ccccc1)NC(=O)[C@@H](NC(=O)CNC(=O)[C@H](CCC(=O)O)NC(=O)C(C)(C)NC(=O)[C@@H](N)Cc1c[nH]cn1)[C@@H](C)O)[C@@H](C)O)C(C)C)C(=O)N[C@@H](C)C(=O)N[C@@H](Cc1c[nH]c2ccccc12)C(=O)N[C@@H](CC(C)C)C(=O)N[C@H](C(=O)N[C@@H](CCCCN)C(=O)NC(C)(C)C(=O)N[C@@H](CCCNC(=N)N)C(N)=O)C(C)C [SEQ ID NO: 41] (H-H[Aib]EGTFTSDVSSYCEGQAAKEFIAWLVK[Aib]R-NH2),< 10

# Reference: patent publication US20090098130A1, “GLUCAGON-LIKE PROTEIN-1 RECEPTOR (GLP-1R) AGONIST COMPOUNDS” (priority 2007, published 2009)
